# Entries after “also recorded” stand apart in the source; their conditions may differ.
# Experiments:
# Format in all cases: cell-based
# [1] = system: Bcr-Abl negative HL-60 cells; experiment: Apoptosis, flow cytometric evaluation of hypodiploid nuclei; settings: ciclopirox 0 to 81 μM
# Protocol: (§1) K562 and HL-60 (2×10^5 cells per well) are cultured in 24-well tissue plates under the conditions described above.
# (§2) Briefly, nuclei are prepared by lysing cells in a hypotonic lysis buffer (1% sodium citrate, 0.1% Trition X-100, 50 μg propidium iodide per ml) and subsequently analyzed by flow cytometry. Nuclei to the left of the 2N peak containing hypodiploid DNA are considered as apoptotic. Flow cytometric analysis are performed on a FACScalibur (Becton Dickinson) using […] analysis software.
# (§3) Apoptosis was also measured after 24 h by flow cytometric evaluation of hypodiploid nuclei as described in above Methods.
# [2] = system: Bcr-Abl-positive K562 cells; experiment: as above; settings: ciclopirox 0 to 81 μM
# Protocol: as §1, §2, §3
# [3] = system: Bcr-Abl positive K562 cells; experiment: MTT assay, growth inhibition / cellular cytotoxicity; settings: 24 h, ciclopirox 0 to 81 μM
# Protocol: (§4) K562 cells were obtained from DSMZ (Bielefeld, Germany). HL-60 lines were kindly provided by Dr. Bühring (Tübingen, Germany). Both cell lines are cultured in RPMI 1640 medium (Gibco-BRL, Invitrogen, UK) containing 10% fetal calf serum (FCS) (Biochrom KG, Berlin, Germany). The cells are incubated at 37° C. in a humidified atmosphere with 5% CO2 in air.
# (§5) K652 and HL-60 cells are plated into 96-well flat-bottomed microtiter plates (Becton Dickinson, Heidelberg, Germany) at 1.5×10^4 cells/well in 150 μl of their respective media.
# (§6) All analyses are performed in triplicates. After 24 and 48 hours, the viable cells in each well are assayed for their ability to transform 3-(4,5-dimethylthiazol-2-yl)-2,5-diphenyltetrazolium bromide (MTT) into a purple formazan (Twentyman et al., Br. J. Haematol. 71, 19-24 (1989), Arnould et al., Anticancer Res. 10, 145-154 (1990)). Therefore, 10 μl of a 10 mg/ml MTT solution is added in each well. After an incubation period of 2 hours at 37° C., the purple formazan is released by adding lysis buffer (15% sodium dodecyl sulfate [SDS] in DMF/H2O 1:1, pH 4.5) and shaking overnight in the dark. The absorbance of the samples is measured on an enzyme-linked immunosorbent assay (ELISA) plate reader (Dynatech MR7000) at 570 nm. […]
# [4] = system: Bcr-Abl-negative HL-60 cells; experiment: as above; settings: ciclopirox 0 to 81 μM
# Protocol: as §4, §5, §6
compound,measurement,setting,value
"Cc1cc(C2CCCCC2)n(O)c(=O)c1 [ciclopirox, 6-cyclohexyl-1-hydroxy-4-methyl-2(1H)-pyridinone]","induction of apoptosis, single agent",[1],induces apoptosis
same,"induction of apoptosis, single agent",[2],induces apoptosis
same,"growth inhibition / cell viability, single agent",[3],inhibits cell viability; also recorded: anti-proliferative effect was detected
same,"cell viability, single agent",[4],inhibits cell viability
